Assay results: publication PMC6151589, “Identification of Optically Active Pyrimidine Derivatives as Selective 5-HT2C Modulators” (Molecules : A Journal of Synthetic Chemistry and Natural …, 2017)

Experiments:
Experiment in all cases: biochemical
Design in all cases: species or system HEK293 or CHO; competitive radioligand binding on crude membranes, filtration and scintillation counting
[1] = biological target: T1, 5-HT2C (Homo sapiens, UniProt P28335)
T1 construct: gene HTR2C; human recombinant receptor; crude membrane fractions of transfected cells (CHO-K1; HEK293 or CHO)
T1 sequence (P28335 33-458): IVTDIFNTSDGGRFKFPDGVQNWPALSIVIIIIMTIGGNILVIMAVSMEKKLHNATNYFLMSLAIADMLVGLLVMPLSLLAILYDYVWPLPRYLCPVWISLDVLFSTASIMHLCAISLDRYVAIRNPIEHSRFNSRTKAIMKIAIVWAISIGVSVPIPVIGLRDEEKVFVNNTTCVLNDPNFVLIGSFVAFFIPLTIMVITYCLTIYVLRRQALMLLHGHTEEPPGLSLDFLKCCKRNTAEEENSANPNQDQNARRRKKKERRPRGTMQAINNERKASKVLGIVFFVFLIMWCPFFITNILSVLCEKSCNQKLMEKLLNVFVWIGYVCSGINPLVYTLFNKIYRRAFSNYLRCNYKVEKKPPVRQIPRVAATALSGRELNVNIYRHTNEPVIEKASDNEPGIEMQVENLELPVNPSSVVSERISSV
Experimental: (§1) Eleven dilutions (5 × assay concentration) of the test and reference compounds (Table S1) were prepared in standard binding buffer (50 mM tris(hydroxymethyl)-aminomethane-HCl (Tris-HCl), 10 mM MgCl2, 1 mM ethylenediaminetetraacetate (EDTA), pH 7.4) by serial dilution: 0.05 nM, 0.5 nM, 1.5 nM, 5 nM, 15 nM, 50 nM, 150 nM, 500 nM, 1.5 μM, 5 μM, and 50 μM. The radioligand (Table S3) was diluted to five times the assay concentration in standard binding buffer. Aliquots ([…]) of the radioligand were dispensed into the wells of a 96-well plate containing […] of standard binding buffer. Triplicate aliquots ([…]) of the test and reference compound dilutions were then added. Finally, crude membrane fractions ([…]) of cells (HEK293 or CHO) expressing human recombinant receptors were dispensed into each well. A total of […] of the reaction mixtures was incubated at room temperature and shielded from light for 1.5 h, and was then harvested by rapid filtration onto Whatman GF/B glass fiber filters presoaked with 0.3% polyethyleneimine, by using a 96-well Brandel harvester (Gaithersburg, MD, USA). Four rapid washes were performed with chilled standard binding buffer (500 mL) to decrease nonspecific binding. Filters were placed in 6 mL scintillation tubes and allowed to dry overnight. The next day, 4-mL of EcoScint scintillation cocktail (National Diagnostics) was added to each tube. The tubes were capped, labeled, and counted by […] scintillation counting. The filter mats were dried, and the scintillant was melted onto the filters, then the radioactivity retained on the filters was counted in a Microbeta scintillation counter. The IC50 values were obtained by using the Prism 4.0 program (GraphPad Software, La Jolla, CA, USA) and were converted into Ki values. Each compound was tested at least in triplicate. With each enantiomer (R)- or (S)-5d and 5e in hand, the optically active pyrimidine derivatives 4d–4e were synthesized following the same reaction sequences (Scheme 3). Finally, compounds 4d and 4e were assessed for their binding affinity to 5-HT2 receptor subtypes by radioligand binding assays. […] A further evaluation of these compounds for other 5-HT receptor subtypes was also performed and is provided in the supplementary data (Table S2). […] Considering the potencies and selectivities of 4, we can conclude that (R,R)-4e would be a viable candidate for a selective 5-HT2C modulator.

[2] = biological target: T2, 5-HT6 (Homo sapiens, UniProt P50406); conditions: for Ki: read-out: Ki (nM), 6
T2 construct: gene HTR6; human recombinant receptor, crude membranes of HEK293 or CHO cells
T2 sequence (P50406 whole entry): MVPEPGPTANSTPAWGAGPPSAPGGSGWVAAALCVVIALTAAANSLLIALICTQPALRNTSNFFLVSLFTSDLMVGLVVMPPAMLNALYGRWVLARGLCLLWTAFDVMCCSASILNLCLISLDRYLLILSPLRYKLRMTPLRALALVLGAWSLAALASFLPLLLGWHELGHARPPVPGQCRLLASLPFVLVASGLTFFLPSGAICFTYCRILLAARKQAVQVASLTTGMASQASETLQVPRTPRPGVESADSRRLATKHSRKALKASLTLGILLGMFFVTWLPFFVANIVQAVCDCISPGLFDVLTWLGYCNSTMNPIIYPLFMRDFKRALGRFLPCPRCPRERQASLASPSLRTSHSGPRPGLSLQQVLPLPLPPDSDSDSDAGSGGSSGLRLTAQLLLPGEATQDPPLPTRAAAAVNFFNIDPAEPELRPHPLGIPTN
Experimental: as §1

[3] = biological target: T3, 5-HT2B (Homo sapiens, UniProt P41595)
T3 construct: gene HTR2B; human recombinant receptor; crude membrane fractions of transfected HEK293 or CHO cells
T3 sequence (P41595 whole entry): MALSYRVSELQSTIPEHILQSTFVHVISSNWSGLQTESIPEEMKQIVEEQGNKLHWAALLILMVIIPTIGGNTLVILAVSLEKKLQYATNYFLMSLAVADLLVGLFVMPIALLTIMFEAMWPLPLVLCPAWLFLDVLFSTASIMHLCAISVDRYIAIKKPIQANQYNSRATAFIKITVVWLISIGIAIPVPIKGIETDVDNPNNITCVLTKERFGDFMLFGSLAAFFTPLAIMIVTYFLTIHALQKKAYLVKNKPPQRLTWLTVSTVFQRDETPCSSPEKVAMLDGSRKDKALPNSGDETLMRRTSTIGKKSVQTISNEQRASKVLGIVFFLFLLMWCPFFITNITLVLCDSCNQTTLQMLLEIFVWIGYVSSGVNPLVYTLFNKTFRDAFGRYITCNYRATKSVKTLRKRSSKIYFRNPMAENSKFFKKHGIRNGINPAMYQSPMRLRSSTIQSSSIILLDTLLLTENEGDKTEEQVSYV
Experimental: as §1

[4] = biological target: T4, 5-HT1D (Homo sapiens, UniProt P28221)
T4 construct: gene HTR1D; human recombinant receptor, crude membranes of HEK293 or CHO cells
T4 sequence (P28221 whole entry): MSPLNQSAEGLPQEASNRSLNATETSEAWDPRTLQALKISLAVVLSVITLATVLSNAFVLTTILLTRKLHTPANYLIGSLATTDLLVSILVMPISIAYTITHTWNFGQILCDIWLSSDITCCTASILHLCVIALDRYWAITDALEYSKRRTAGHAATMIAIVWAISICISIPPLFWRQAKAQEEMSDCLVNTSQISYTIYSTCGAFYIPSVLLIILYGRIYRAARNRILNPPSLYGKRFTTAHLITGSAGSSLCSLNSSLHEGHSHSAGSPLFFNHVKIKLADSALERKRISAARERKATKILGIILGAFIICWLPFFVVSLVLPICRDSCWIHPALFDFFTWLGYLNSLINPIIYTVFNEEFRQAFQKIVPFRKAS
Experimental: as §1

[5] = biological target: T5, 5-HT7 (Homo sapiens, UniProt P34969); conditions: for Ki: read-out: Ki (nM), 7
T5 construct: gene HTR7; human recombinant receptor, crude membranes of HEK293 or CHO cells
T5 sequence (P34969 whole entry): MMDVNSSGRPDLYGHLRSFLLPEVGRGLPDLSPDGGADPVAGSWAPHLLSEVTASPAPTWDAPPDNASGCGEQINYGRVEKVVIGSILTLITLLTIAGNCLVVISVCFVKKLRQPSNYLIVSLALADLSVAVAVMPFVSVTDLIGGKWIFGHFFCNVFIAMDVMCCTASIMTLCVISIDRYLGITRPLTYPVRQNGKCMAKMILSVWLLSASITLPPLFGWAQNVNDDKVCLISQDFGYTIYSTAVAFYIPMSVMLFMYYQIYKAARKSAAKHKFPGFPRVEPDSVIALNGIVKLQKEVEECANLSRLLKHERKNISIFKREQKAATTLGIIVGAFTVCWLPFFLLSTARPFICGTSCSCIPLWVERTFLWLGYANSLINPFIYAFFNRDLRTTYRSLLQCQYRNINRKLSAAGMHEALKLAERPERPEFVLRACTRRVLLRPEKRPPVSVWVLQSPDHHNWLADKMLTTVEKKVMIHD
Experimental: as §1

[6] = biological target: T6, 5-HT1B (Homo sapiens, UniProt P28222)
T6 construct: gene HTR1B; human recombinant receptor, crude membranes of HEK293 or CHO cells
T6 sequence (P28222 whole entry): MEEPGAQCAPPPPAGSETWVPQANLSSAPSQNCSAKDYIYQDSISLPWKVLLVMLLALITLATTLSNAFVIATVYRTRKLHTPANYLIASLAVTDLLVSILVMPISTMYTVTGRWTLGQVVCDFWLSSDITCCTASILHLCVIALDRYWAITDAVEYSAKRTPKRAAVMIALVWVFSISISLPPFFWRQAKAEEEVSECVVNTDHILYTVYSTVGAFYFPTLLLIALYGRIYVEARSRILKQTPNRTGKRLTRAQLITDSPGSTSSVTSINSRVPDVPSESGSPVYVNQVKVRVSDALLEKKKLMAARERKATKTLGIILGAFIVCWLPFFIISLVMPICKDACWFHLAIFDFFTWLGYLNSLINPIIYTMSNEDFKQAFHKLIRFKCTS
Experimental: as §1

[7] = biological target: T7, 5-HT3 (Homo sapiens, UniProt P46098); conditions: for Ki: read-out: Ki (nM), 3
T7 construct: gene HTR3A; human recombinant receptor, crude membranes of HEK293 or CHO cells
T7 sequence (P46098 1-478): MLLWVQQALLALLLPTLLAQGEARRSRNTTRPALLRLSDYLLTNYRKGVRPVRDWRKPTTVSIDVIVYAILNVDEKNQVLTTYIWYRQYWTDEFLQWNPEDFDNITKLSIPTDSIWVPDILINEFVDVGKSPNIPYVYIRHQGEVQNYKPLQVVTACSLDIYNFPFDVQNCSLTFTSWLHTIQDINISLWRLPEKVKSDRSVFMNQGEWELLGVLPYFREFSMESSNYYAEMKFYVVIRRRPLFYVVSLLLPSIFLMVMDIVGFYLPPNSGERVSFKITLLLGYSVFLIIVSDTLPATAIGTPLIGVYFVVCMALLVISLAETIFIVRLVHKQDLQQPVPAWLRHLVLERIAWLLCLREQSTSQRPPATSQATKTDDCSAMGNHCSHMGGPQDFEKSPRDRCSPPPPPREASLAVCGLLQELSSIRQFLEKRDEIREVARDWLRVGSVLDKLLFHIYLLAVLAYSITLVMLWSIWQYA
Experimental: as §1

## C[C@@H]1CNCCN1c1ncc(F)c(O[C@H](C)c2cccc(F)c2)n1 [(R,R)-4d, 5-Fluoro-4-((R)-1-(3-fluorophenyl)ethoxy)-2-((R)-2-methylpiperazin-1-yl)pyrimidine]
[1]
  inhibition at 10 µM: 98.5%
[2]
  inhibition at 10 µM: 95.7%
  Ki: 57 nM
[3]
  inhibition at 10 µM: 100%
[4]
  inhibition at 10 µM: -6.8%
[5]
  inhibition at 10 µM: 84.4%
  Ki: 444 nM
[6]
  inhibition at 10 µM: 27.7%
[7]
  inhibition at 10 µM: 89.4%
  Ki: 242 nM

## C[C@@H]1CNCCN1c1ncc(F)c(O[C@H](C)c2ccc(F)cc2)n1 [(R,R)-4e, 5-Fluoro-4-((R)-1-(4-fluorophenyl)ethoxy)-2-((R)-2-methylpiperazin-1-yl)pyrimidine]
[1]
  inhibition at 10 µM: 94.2%
[2]
  inhibition at 10 µM: 97.4%
  Ki: 17 nM
[3]
  inhibition at 10 µM: 99.6%
[4]
  inhibition at 10 µM: -7.7%
[5]
  inhibition at 10 µM: 87.6%
  Ki: 236 nM
[6]
  inhibition at 10 µM: 6.4%
[7]
  inhibition at 10 µM: 87.8%
  Ki: 242 nM

## C[C@H](Oc1nc(N2CCNC[C@H]2C)ncc1F)c1cccc(F)c1 [(S,R)-4d, 5-Fluoro-4-((S)-1-(3-fluorophenyl)ethoxy)-2-((R)-2-methylpiperazin-1-yl)pyrimidine]
[1]
  inhibition at 10 µM: 97.7%
[2]
  inhibition at 10 µM: 91.6%
  Ki: 70 nM
[4]
  inhibition at 10 µM: 10.3%
[5]
  inhibition at 10 µM: 56.9%
  Ki: 766 nM
[6]
  inhibition at 10 µM: 3%
[7]
  inhibition at 10 µM: 78.6%
  Ki: 501 nM

## C[C@H](Oc1nc(N2CCNC[C@H]2C)ncc1F)c1ccc(F)cc1 [(S,R)-4e, 5-Fluoro-4-((S)-1-(4-fluorophenyl)ethoxy)-2-((R)-2-methylpiperazin-1-yl)pyrimidine]
[1]
  inhibition at 10 µM: 97.8%
[2]
  inhibition at 10 µM: 86.1%
  Ki: 116 nM
[3]
  inhibition at 10 µM: 95.3%
[4]
  inhibition at 10 µM: 40.4%
[5]
  inhibition at 10 µM: 64.8%
  Ki: 946 nM
[6]
  inhibition at 10 µM: 17.9%
[7]
  inhibition at 10 µM: 70.1%
  Ki: 1000 nM

## C[C@H](Cc1cccc(F)c1)Oc1nc(N2CCNC[C@H]2C)ncc1F [compound 3, pyrimidine analogue 3]
[1]
  inhibition at 10 µM: 98.2%
[2]
  inhibition at 10 µM: 93.8%
  Ki: 43 nM
[3]
  inhibition at 10 µM: 97.4%
[4]
  inhibition at 10 µM: 78.3%
[4]; read-out: Ki (nM), 1D
  Ki: 542 nM
[5]
  inhibition at 10 µM: 94.7%
  Ki: 84 nM
[6]
  inhibition at 10 µM: 55.1%
[6]; read-out: Ki (nM), 1B
  Ki: 1780 nM
[7]
  inhibition at 10 µM: 75%
  Ki: 241 nM
